Reference: PMC6712002, “Comprehensive in vitro characterization of PD-L1 small molecule inhibitors” (Scientific Reports, 2019)
pIC50: −log10 of the molar value. Entries after “also recorded” stand apart in the source; their conditions may differ. Bridge positions count the residues as written; N and C are the ends. Square brackets hold non-standard residues; d marks the D form. Peptide text beside a SMILES is read from it. NMeNle = CCCC[C@H](NC)C(=O)O; NMeA = CN[C@@H](C)C(=O)O

Legend:
Fc-B7-1 = molecular target: T1, Fc-B7-1 (Homo sapiens, UniProt P33681); experiment: SPR binding to captured Fc-B7-1 (specificity)
T1 sequence (P33681 35-242 limits assumed): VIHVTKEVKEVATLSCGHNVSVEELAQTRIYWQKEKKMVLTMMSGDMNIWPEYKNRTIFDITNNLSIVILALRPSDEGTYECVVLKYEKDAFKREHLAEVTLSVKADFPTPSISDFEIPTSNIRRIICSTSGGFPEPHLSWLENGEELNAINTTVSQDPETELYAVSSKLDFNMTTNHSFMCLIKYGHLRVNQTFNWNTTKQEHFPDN

[1] = tested on: peripheral blood mononuclear cells (PBMCs); assay type: cell-based, human
[2] = tested on: PD-1 negative Jurkat T cells; experiment: Counter-screen NFAT luciferase reporter in PD-1 negative Jurkat T cells; assay type: cell-based; settings: 24.5 μM and 49 μM
CHO cells = experiment: CHO cell viability, CellTiter-Glo; settings: 24 h; for concentration significantly reducing cell viability: vs DMSO control
HepG2 cells = experiment: HepG2 cell viability, CCK-8 assay; assay type: cell-based, human; settings: HepG2, 24 h; for concentration significantly reducing cell viability / concentration without significant effect on cell viability: CCK-8; for effect on cell viability: various concentrations tested
Experimental: We also evaluated the acute cytotoxicity of the BMS and Aurigene compounds by testing the effects of compound treatment on the viability of HepG2 cell line. […] The purpose of using HepG2 cells, thus, would allow for evaluation of the parent molecules and potential metabolites for cytotoxicity. The cells were treated with the compounds for 24 h and then the cell viability was assessed by the CCK-8 assay (Fig. 7C).
The acute cytotoxicity of the test compounds was also evaluated by administering the test compounds to human hepatoma (HepG2) cells and assessing their viability (metabolic viability) using the CCK-8 assay (based on WST-8). HepG2 cells are commonly used in the early screening stages for new chemical entities, and the CCK-8 assay has been well established as a sensitive and reliable indicator for cellular metabolic activity (viability) for this purpose. HepG2 cells were obtained from ATCC (HB-8065; Manassas, VA) and maintained in DMEM culture medium in a water-jacketed incubator (5% CO2, 37 °C). […] At this time point, cells were treated with WST-8 based on the manufacturer’s protocol (CCK-8 kit, Dojindo Molecular Technologies, Rockville, MD). Cell viability calculations were also carried out according to the manufacturer’s protocol, which included accounting for potential interference from test compounds, and comparisons to appropriate controls. GraphPad Prism was used for data analysis and graphical representation.

Jurkat cells = experiment: Jurkat cell viability, CellTiter-Glo; assay type: cell-based; settings: 24 h; for concentration significantly decreasing cell viability: vs DMSO control; for effect on cell viability: concentrations tested
PD-1/PD-L1 interface = PD-1/PD-L1 interface (Homo sapiens, UniProt Q9NZQ7); experiment: Binding to the PD-1/PD-L1 interface (method not given)
Sequence of PD-1/PD-L1 interface (Q9NZQ7 19-290): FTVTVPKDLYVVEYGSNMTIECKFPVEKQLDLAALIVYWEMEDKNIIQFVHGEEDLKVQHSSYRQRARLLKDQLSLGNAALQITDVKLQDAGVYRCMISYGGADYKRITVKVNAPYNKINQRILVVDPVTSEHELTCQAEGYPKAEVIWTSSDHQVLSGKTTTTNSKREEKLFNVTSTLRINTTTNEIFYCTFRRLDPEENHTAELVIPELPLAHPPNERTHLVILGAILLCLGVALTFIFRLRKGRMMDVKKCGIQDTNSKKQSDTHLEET

[3] = tested on: peripheral blood mononuclear cells (PBMCs); experiment: IFN-γ production by SEB-stimulated PBMCs (ELISA); assay type: cell-based, human
human PD-1 protein = human PD-1 protein (Homo sapiens, UniProt Q15116); experiment: DSF of PD-1; assay type: binding
Sequence of human PD-1 protein (Q15116 25-288): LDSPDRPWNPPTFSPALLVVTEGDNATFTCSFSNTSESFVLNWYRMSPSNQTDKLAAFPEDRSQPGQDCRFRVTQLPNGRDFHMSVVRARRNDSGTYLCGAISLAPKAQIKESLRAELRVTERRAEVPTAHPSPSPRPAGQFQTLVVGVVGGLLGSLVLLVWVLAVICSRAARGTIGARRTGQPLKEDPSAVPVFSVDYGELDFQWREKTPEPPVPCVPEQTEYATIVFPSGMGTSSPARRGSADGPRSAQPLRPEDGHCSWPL

PD-1/PD-L1 binding [4] = molecular target: T2, PD-1/PD-L1 binding (Homo sapiens, UniProt Q9NZQ7); experiment: PD-1/PD-L1 ELISA competition assay, reverse configuration (PD-1 coated, biotinylated PD-L1); assay type: biochemical; settings: biotin tagged PD-L1
Target sequence in this assay (Q9NZQ7 19-238 limits assumed): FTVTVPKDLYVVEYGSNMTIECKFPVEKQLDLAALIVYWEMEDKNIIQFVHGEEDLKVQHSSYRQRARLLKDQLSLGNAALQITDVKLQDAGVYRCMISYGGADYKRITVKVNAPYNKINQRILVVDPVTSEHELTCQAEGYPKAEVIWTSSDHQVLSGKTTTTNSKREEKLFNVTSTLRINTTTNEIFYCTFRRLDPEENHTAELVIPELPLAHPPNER

PD-L1 [5] = molecular target: T3, PD-L1 (Homo sapiens, UniProt Q9NZQ7); experiment: 1D NMR STD and WaterLOGSY binding; settings: 12 µM PD-L1, 200 µM compound
T3 construct: human PD-L1 (residues 18–134) was cloned into pET21b vector; made in house
T3 sequence (Q9NZQ7 18-134): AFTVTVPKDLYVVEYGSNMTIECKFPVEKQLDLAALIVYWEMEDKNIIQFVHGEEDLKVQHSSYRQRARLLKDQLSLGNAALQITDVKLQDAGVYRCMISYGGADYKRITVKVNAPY
Experimental: In addition, we also employed 1D NMR-based methods, saturation transfer difference (STD) and WaterLOGSY techniques, to unambiguously rule-out the binding of Aurigene-1 to PD-L1 protein. STD and WaterLOGSY are popular ligand-based approaches to detect the binding of protein-protein inhibitors.
NMR samples contained 12 µM of protein, 200 µM of compound in 1x PBS (phosphate-buffered saline buffer, pH 7.5) and 0.25 mM 2,2-dimethyl-2-silapentane-5-sulfonate-d6 sodium salt (DSS-d6) as an NMR internal reference in 95/5% H2O/D2O or 100% D2O. […] NMR spectroscopy was performed at the Nanuc NMR Centre on a 2.2 K pumped-800 MHz Oxford magnet updated to a Bruker Neo-Advance IV console equipped with a 5 mm cryoprobe and SampleJet robotics.
Fig. S3: STD and WaterLOGSY experiments of PD-L1 binding to Aurigene-1. Blue - 1D spectrum of Aurigene-1, Red and Green -STD and WaterLOGSY spectra respectively of 12 μM of PD-L1 with 200 μM of Aurigene-1

Fc-PD-L1 = Fc-PD-L1 (Homo sapiens, UniProt Q9NZQ7); experiment: SPR binding to captured Fc-PD-L1; settings: Fc-PD-L1 captured on Protein A chip, 25 °C
Sequence of Fc-PD-L1 (Q9NZQ7 19-238 limits assumed): as the sequence (Q9NZQ7 19-238 limits assumed) above

PD-1/PD-L1 binding [6] = molecular target: T2, PD-1/PD-L1 binding; experiment: PD-1/PD-L1 ELISA competition assay (PD-L1 coated, biotinylated PD-1); assay type: biochemical; set-up: purchased R&D Systems (Fc-PD-L1); Acro Biosystems (biotinylated PD-1)
Target sequence in this assay (Q9NZQ7 19-239 limits assumed): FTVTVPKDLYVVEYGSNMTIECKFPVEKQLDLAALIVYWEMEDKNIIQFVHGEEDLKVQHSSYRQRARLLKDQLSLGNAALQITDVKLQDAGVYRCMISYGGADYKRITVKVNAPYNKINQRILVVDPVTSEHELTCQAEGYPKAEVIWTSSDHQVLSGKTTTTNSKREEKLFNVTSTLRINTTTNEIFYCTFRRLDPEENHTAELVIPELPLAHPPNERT

[7] = tested on: PD-1/NFAT reporter Jurkat cells co-cultured with TCR activator/PD-L1-CHO cells; experiment: Bioluminescent PD-1/PD-L1 cell-based assay (NFAT luciferase reporter)
PD-L1 [8] = molecular target: T3, PD-L1; experiment: Differential scanning fluorimetry (DSF) of PD-L1; assay type: binding; settings: PD-L1 10 µM, compound 50 µM
PD-L1 [9] = molecular target: T3, PD-L1; experiment: Microscale thermophoresis (MST) binding to labeled PD-L1; settings: labeled PD-L1 60 nM
mouse splenocytes = tested on: mouse splenocytes; set-up: method as in earlier work; settings: CFSE proliferation assay with recombinant PD-L1; cited from earlier work
PD-1/PD-L1 = settings: read-out: IC50 (HTRF); original disclosure; cited from earlier work

COc1cc(OCc2cccc(-c3ccccc3)c2C)cc(OC)c1CNCCO [BMS-103]
binding with captured Fc-B7-1 (Fc-B7-1): None of the BMS inhibitors (BMSpep-57, BMS-103 and BMS-142) showed binding
IL-2 production vs positive control [1]: significantly lower levels of IL-2 than the positive control
luminescence of PD-1 negative Jurkat cells [2]: substantially low
concentration significantly reducing cell viability (CHO cells): ≥ 12.2 µM
concentration significantly reducing cell viability (HepG2 cells): ≥ 12.2 µM
concentration without significant effect on cell viability (HepG2 cells): up to 2.4 µM
concentration completely abolishing cell viability (Jurkat cells): ≥ 2.4 µM
concentration significantly decreasing cell viability (Jurkat cells): 0.4 µM

Cc1ccc2ccccc2c1CN1CCN(c2c([N+](=O)[O-])c(=O)n(C)c3ccccc23)CC1 [Compound A]
concentration without significant effect on cell viability (HepG2 cells): ≤ 90 µM
binding to the PD-1/PD-L1 interface (PD-1/PD-L1 interface): did not bind to the PD-1/PD-L1 interface
fold IFN-γ production vs untreated cells [3]: approximately 1.2 fold

CC(O)[C@H](NC(=O)N[C@@H](CC(N)=O)c1nc([C@@H](N)CO)no1)C(=O)O (some centres unmarked) [Aurigene-1]
thermal stability of PD-1 protein (human PD-1 protein): did not increase the thermal stability of PD-1 protein; also recorded: did not induce thermal stability to the human PD-1 protein
inhibition of PD-1/PD-L1 binding, reverse configuration (PD-1/PD-L1 binding [4]): did not show inhibition of PD-1/PD-L1 binding
binding to PD-L1 (STD, WaterLOGSY NMR) (PD-L1 [5]): does not bind to PD-L1 protein
Rmax (maximum binding response) (Fc-PD-L1): 0.78 ± 0.36 RU
effect on IL-2 production [1]: cannot enhance IL-2 production
inhibition of PD-1/PD-L1 binding (PD-1/PD-L1 binding [6]; 7.8 µM to 500 µM): did not inhibit the PD-1/PD-L1 binding
NFAT activity ([7]; 55.5 μM, 27.8 μM, 13.9 μM, 2.8 μM and 1.4 μM): none of these concentrations facilitated NFAT activity
shift of Tm of PD-L1 (PD-L1 [8]): 0.7 ± 0.1 °C
binding to PD-L1 (MST fluorescence response) (PD-L1 [9]): no change in fluorescence
rescue of mouse splenocyte proliferation (mouse splenocytes): 97%
effect on cell viability (HepG2 cells): did not show any effects on the cell viability
effect on cell viability (Jurkat cells): did not show any effect on the cell viability

COc1cc(OCc2cccc(-c3ccccc3)c2C#N)cc(OC)c1CNCCO [BMS-142]
binding with captured Fc-B7-1 (Fc-B7-1): None of the BMS inhibitors (BMSpep-57, BMS-103 and BMS-142) showed binding
NFAT activity vs cells only ([7]; 12.3 μM, 2.4 μM and […]): no change in NFAT activity
NFAT activity (interaction with PD-1/PD-L1) ([7]; 24 µM and 48 µM): sometimes interacted weakly with PD-1/PD-L1, although this was not statistically significant
concentration without any effect on cell viability (CHO cells): up to 2.4 µM
concentration significantly reducing cell viability (CHO cells): ≥ 12 µM
concentration significantly reducing cell viability (HepG2 cells): ≥ 48 µM
pIC50 (PD-1/PD-L1): 7.00 to 8.22
concentration without any effect on cell viability (Jurkat cells): up to 2.4 µM
concentration significantly decreasing cell viability (Jurkat cells): ≥ 12 µM

CCCC[C@H]1C(=O)N(C)[C@@H](CCCC)C(=O)N[C@@H](CCCNC(=N)N)C(=O)N[C@H](C(=O)NCC(N)=O)CSCC(=O)N[C@@H](Cc2ccccc2)C(=O)N(C)[C@@H](C)C(=O)N[C@@H](CC(N)=O)C(=O)N2CCC[C@H]2C(=O)N[C@@H](Cc2c[nH]cn2)C(=O)N[C@@H](CC(C)C)C(=O)N[C@@H](CO)C(=O)N[C@@H](Cc2c[nH]c3ccccc23)C(=O)N[C@@H](CO)C(=O)N[C@@H](Cc2c[nH]c3ccccc23)C(=O)N1C [BMSpep-57] ({CH2CO}-F[NMeA]NPHLSWSW[NMeNle][NMeNle]RCG-NH2; thioether N-14; N-terminus and C-terminus assumed)
inhibition at 0.3 µM (PD-1/PD-L1 binding [6]; at 300 nM): 98.1%

CCCC[C@H]1C(=O)N(C)[C@@H](CCCC)C(=O)N[C@@H](CCCNC(=N)N)C(=O)N[C@H](C(=O)NCC(N)=O)CSCC(=O)N[C@@H](Cc2ccccc2)C(=O)N(C)[C@@H](C)C(=O)N[C@@H](CC(N)=O)C(=O)N2CCC[C@H]2C(=O)N[C@@H](Cc2cnc[nH]2)C(=O)N[C@@H](CC(C)C)C(=O)N[C@@H](CO)C(=O)N[C@@H](Cc2c[nH]c3ccccc23)C(=O)N[C@@H](CO)C(=O)N[C@@H](Cc2c[nH]c3ccccc23)C(=O)N1C [BMSpep-57] ({CH2CO}-F[NMeA]NPHLSWSW[NMeNle][NMeNle]RCG-NH2; thioether N-14)
effect on cell viability (HepG2 cells): did not show any effects on the cell viability
effect on cell viability (Jurkat cells): did not show any effect on the cell viability
